Drawing on patent publication US20250271418A1, “ANTICANCER DRUG ASSESSMENT METHODS AND ANTICANCER DRUG ASSESSMENT KITS” (TOPPAN HOLDINGS INC., priority 2022, published 2025), this text covers viability for one compound.

What all share (assay): cells
Test [1] deals with HT29, a human colorectal adenocarcinoma cell line. Conditions: HT-29, 72 h, read-out: Cell viability (%).
The test system is the same in test [2]. Conditions: 72 h, read-out: Cell viability (%).
Test [3] shares this test system. Conditions: 72 h, read-out: Cell viability (%). The source holds these as a separate data set.

Like-named read-outs stand apart in the source and are kept apart here.

Turning to `O=c1[nH]cc(F)c(=O)[nH]1` [5-FU, 5-fluorouracil], in test [1], the viability (as a rule, a per cent measure of how many cells are alive, often set against a control) at 1 µM worked out at 99.3 ± 21%; the viability at 10 µM stood at 75.3 ± 12.4%; the viability at 100 µM is 54.3 ± 10.2%; the viability at 1000 µM stood at 40.3 ± 8.34%. In addition, in test [2], the viability at 1 µM was found to be 100 ± 31.2%. In addition, in test [3], the viability at 1 µM stood at 100 ± 13.2%.
